The values below come from PMC11478212, “Antitumoral and Antiproliferative Potential of Synthetic Derivatives of Scorpion Peptide IsCT1 in an Oral Cavity Squamous Carcinoma Model” (Molecules, 2024).

Usually pIC50 stands for the negative decadic logarithm of the IC50, by convention in mol/L.

pIC50: −log10 of the molar value. “And” between values parts separate entries of the source, which are not always exact repeats. Identical values can stand only once. “Also recorded” adds a separate entry of the source. Like-named read-outs stand apart in the source and are kept apart here.

Common to all, as to assay type: cell-based
The test system of assay [1] is SCC-25 tumor cells. Put plainly: Cell cycle phase and DNA fragmentation analysis (flow cytometry). The conditions noted are these: 24 h, IsCT-P and AC-AFPK-IsCT1 at IC50, others 100 µM. The procedure: Figure 3 Analysis of cell cycle phases following a 24 h treatment with synthetic analogs of IsCT1 peptides. The indicated cells were treated at the IC50 values obtained for the IsCT-P and AC-AFPK-IsCT1 peptides and at a concentration of 100 µM for the other peptides. (a) Representative histograms of cell distribution across cell cycle phases; (b) bar graph showing the correlation of the effect on cell cycle and fragmented DNA, expressed as the mean ± SD of three independent SCC-9 tumor cell experiments; (c) bar graph showing the correlation of the effect on cell cycle and fragmented DNA, expressed as the mean ± SD of three independent experiments on SCC-25 tumor cells; (d) bar graph showing the correlation of the effect on cell cycle and fragmented DNA, expressed as the mean ± SD of three independent experiments of normal FN1 cells; (e) bar graph showing the correlation of the effect on cell cycle and fragmented DNA, expressed as the mean ± SD of three independent experiments of normal J774 cells. Statistical differences were obtained using ANOVA and Tukey–Kramer multiple comparison tests. * p < 0.05, ** p < 0.01, and *** p < 0.001 denote significance. ns = not significant.
Tumor (SSC-9 and SSC-25) and normal cells (FN1 and J-774) were subjected to treatment for 24 h at the peptides’ IC50 concentrations. Treated and control cells were trypsinized and centrifuged at 1200 rpm for 5 min. The resulting pellet was resuspended in 1 mL of cold buffer, followed by the addition of 3 mL of absolute ethanol. Samples were stored at −20 °C for 24 h. The samples were then centrifuged at 1500 rpm for 10 min and resuspended in 200 μL of FACS buffer containing 0.1% Triton X-100 (Sigma-Aldrich, St. Louis, MO, USA), 50 μg/mL propidium iodide (Sigma-Aldrich), and 1 µL of RNAse (200×). This mixture was kept at room temperature and protected from light for 30 min. The samples were then transferred to cytometry tubes and analyzed using a FACScanto flow cytometer (BD) with 10,000 events, and histograms were acquired and analyzed using ModFit LT 5.0 software.
(In flow cytometry, cells or beads pass a laser one at a time.)

Another assay has as its system SCC-9 tumor cells. Put plainly: Mitochondrial membrane electrical potential (ΔΨm) by flow cytometry. The conditions noted are these: 24 h, IsCT-P and AC-AFPK-IsCT1 at IC50, others 100 µM, MitoRed, mean ± SD of three independent experiments. Here is the method: (§1) Figure 4 Analysis of mitochondrial electrical potential (ΔΨm) using flow cytometry following a 24 h treatment with synthetic analogs of IsCT1 peptides. The indicated cells were treated at the IC50 values obtained for the IsCT-P and AC-AFPK-IsCT1 peptides and at a concentration of 100 µM for the other peptides. (a) Representative histograms of cell distribution according to ΔΨm; (b) bar graph showing ΔΨm expressed as the mean ± SD of three independent experiments of SCC-9 tumor cells; (c) bar graph showing ΔΨm expressed as the mean ± SD of three independent experiments of SCC-25 tumor cells; (d) bar graph showing ΔΨm expressed as the mean ± SD of three independent experiments of normal FN1 cells; (e) bar graph showing ΔΨm expressed as the mean ± SD of three independent experiments of normal J774 cells. Statistical differences were obtained using ANOVA and Tukey–Kramer multiple comparison tests. * p < 0.05, ** p < 0.01, and *** p < 0.001 denote significance. ns = not significant.
(§2) Tumor (SSC-9 and SSC-25) and normal cells (FN1 and J-774) were subjected to treatment for a period of 24 h at the peptides’ IC50 concentrations. After treatment, the cells were trypsinized, centrifuged at 1200 rpm for 5 min, the supernatant was discarded, and the cells were resuspended in complete medium containing MitoRed™ (Sigma-Aldrich, USA) (200 nM/L). Subsequently, the samples were incubated in an incubator at 37 °C with 5% CO2 for 30 min. The tubes were then centrifuged, the supernatant was discarded, and the pellet was resuspended in 200 μL of FACS buffer. Readings were performed using a FACScanto flow cytometer (BD) with 10,000 events, and histograms were acquired and analyzed using FCS Express software 2.0.

Assay [2] has as its system SCC-25 tumor cells. The description is as above. The conditions noted are these: 24 h, IsCT-P and AC-AFPK-IsCT1 at IC50, others 100 µM, MitoRed, mean ± SD of three independent experiments. Here is the method: as §1, §2
A further assay has as its system SCC-9 cells. The assay can be described thus: MTT cell viability. The note with it: treatment 24 and 48 h (time of IC50 not given), absorbance 540 nm, N/IC50 = no IC50 for the tested concentrations, no toxicity, read-out: IC50. The procedure: (§3) Cell survival was assessed using an MTT assay. Tumor (SSC-9 and SSC-25) and normal cells (FN1 and J-774) were incubated in 96-well plates at a density of 10^5 cells/mL for 24 h. Subsequently, treatments were administered as described in Table 1 for 24 and 48 h. After the treatment period, the supernatant was aspirated and 100 μL of MTT at a concentration of 5 mg/mL (Calbiochem—Darmstadt, Germany) was added to the plate and incubated for 3 h at 37 °C with 5% CO2. Afterward, the content was removed and 200 μL of methanol was added to dissolve the formazan crystals. Absorbance was then measured at a wavelength of 540 nm using a microplate reader. The hemolysis assay was performed as previously reported.

In a further assay the test system is FN1 cells. The assay can be described thus: MTT cell viability. The note with it: FN1 normal human fibroblasts, treatment 24 and 48 h (time of IC50 not given), absorbance 540 nm, N/IC50 = no IC50 for the tested concentrations, no toxicity. The procedure: as §3
For the next assay, the system named is J774 cells. Put plainly: MTT cell viability. The conditions noted are these: J774 normal macrophages, treatment 24 and 48 h (time of IC50 not given), absorbance 540 nm, N/IC50 = no IC50 for the tested concentrations, no toxicity. The procedure: as §3
The subject of another assay is SCC-25 cells. Put plainly: MTT cell viability. The conditions noted are these: treatment 24 and 48 h (time of IC50 not given), absorbance 540 nm, N/IC50 = no IC50 for the tested concentrations, no toxicity, read-out: IC50. The procedure: as §3

With Ac-ALGKFWPKIKSLF-NH2 [AC-AFPK-IsCT1], the “fragmented DNA” value in the assay on SCC-25 tumor cells [1] is listed as 16.5%. Moreover, the “decrease in ΔΨm” value amounted to 16.3 ± 2.7% in the assay with SCC-9 tumor cells and 31.5 ± 5.4% in the assay with SCC-25 tumor cells [2]. The pIC50 was 4.04 in the assay with SCC-9 cells and 4.07 in the assay with SCC-25 cells. For the same substance, the IC50 entry is given as “did not exhibit cytotoxic effects; also recorded: N/IC50” with FN1 cells and “N/IC50” in the assay with J774 cells.
Turning to H-ILKKIWKPIKKLF-NH2 [IsCT-P], the “fragmented DNA” value with SCC-25 tumor cells [1] worked out at 32.4%. Further, the “decrease in ΔΨm” value was 21.2 ± 5.1% in the assay with SCC-9 tumor cells and 44.4 ± 4.8% in the assay on SCC-25 tumor cells [2]. The pIC50 in the assay on SCC-9 cells is 4.02; in the assay on FN1 cells (read-out: IC50), 4.10 and 4.09; with SCC-25 cells, 4.09. Further, the IC50 entry in the assay with J774 cells is recorded as “N/IC50”.
